Settings: 343.15 K, Liquid, Vibrating tube method

CCCCC(=O)OCC(COC(=O)CCCC)(COC(=O)CCCC)COC(=O)CCCC [pentaerythritol tetrapentanoate]
Settings | mass density [kg/m3]
5413.1 kPa | 982.8
5435 kPa | 982.7
5461.9 kPa | 982.8
5505.6 kPa | 982.8
5528.3 kPa | 982.7
5555.3 kPa | 982.9
5578.3 kPa | 982.9
5601.1 kPa | 982.8
5652.8 kPa | 983
6775.7 kPa | 983.7
6868.5 kPa | 983.8
7157.9 kPa | 984.1
7189.4 kPa | 984.1
7222 kPa | 984.1
7362.2 kPa | 984.3
7507.8 kPa | 984.3
7543.3 kPa | 984.3
7586.1 kPa | 984.4
7622 kPa | 984.5
7658.5 kPa | 984.4
7695.9 kPa | 984.5
7740.8 kPa | 984.5
7779.3 kPa | 984.5
7819 kPa | 984.5
7858.9 kPa | 984.6
7901.3 kPa | 984.7
7933.4 kPa | 984.7
7965.2 kPa | 984.7
7997.4 kPa | 984.8
8035.4 kPa | 984.7
8067.7 kPa | 984.8
8100.4 kPa | 984.6
8139.1 kPa | 984.8
8172.2 kPa | 984.9
8205.9 kPa | 984.8
8240 kPa | 984.8
8280.4 kPa | 985
8314.6 kPa | 984.8
8349.6 kPa | 985
8390.6 kPa | 985.1
8425.6 kPa | 985
8461.4 kPa | 985
8504.7 kPa | 985.1
8540.9 kPa | 985
8577.6 kPa | 985.2
8620.4 kPa | 985.2
8653.7 kPa | 985.2
8686.4 kPa | 985.2
8725.9 kPa | 985.3
8759 kPa | 985.2
8793.5 kPa | 985.3
8834.4 kPa | 985.3
8868.3 kPa | 985.2
8902.8 kPa | 985.3
8937.8 kPa | 985.4
8979.2 kPa | 985.4
9014.2 kPa | 985.4
9057.6 kPa | 985.5
9093 kPa | 985.5
9128.9 kPa | 985.5
9165.6 kPa | 985.6
9210.7 kPa | 985.6
9247.8 kPa | 985.6
9284.8 kPa | 985.6
9330.2 kPa | 985.6
9369.1 kPa | 985.6
9408.2 kPa | 985.8
9447.9 kPa | 985.6
9495.3 kPa | 985.9
9536.5 kPa | 985.8
9579.2 kPa | 985.9
9627.1 kPa | 985.8
9659.1 kPa | 985.9
9689.8 kPa | 986
9720.2 kPa | 986
9749.7 kPa | 986
9785.3 kPa | 986
9815.5 kPa | 986.1
9845.4 kPa | 986.1
9881.3 kPa | 986.2
